Data published in the supplement of paper PMC10307832.

Key:
Experiment in all cases: relative viability (nuclei count vs DMSO), 5 days (fraction); higher = more cells survive
[1] = compound: CC1CC(=O)N(C2=CN=C(N=C2N1C3CCCC3)NC4=C(C=C(C=C4)C(=O)NC5CCN(CC5)C)OC)C [NPK76-II-72-1] + CCNC(=O)c1noc(-c2cc(C(C)C)c(O)cc2O)c1-c1ccc(CN2CCOCC2)cc1 [Luminespib] (partner 0.01 µM)
In short: (§1)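 Relative viability is defined as nuclei in treated wells over nuclei in vehicle wells. Duplicate plates were run and medians reported. Lung cancer cell lines in 1536-well plates were dosed by pin tool one day after seeding, with one drug or with a fixed anchor-drug dose plus five library-drug doses (not always all listed) in √10 steps, and nuclei were counted after 5 days.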

[2] = compound: CC1CC(=O)N(C2=CN=C(N=C2N1C3CCCC3)NC4=C(C=C(C=C4)C(=O)NC5CCN(CC5)C)OC)C [NPK76-II-72-1] + O=C(c1cc(Cc2n[nH]c(=O)c3ccccc23)ccc1F)N1CCN(C(=O)C2CC2)CC1 [Olaparib] (partner 8 µM)
In short: as §1

[3] = compound: CC[C@@H]1C(=O)N(C)c2cnc(Nc3ccc(C(=O)NC4CCN(C)CC4)cc3OC)nc2N1C1CCCC1 [BI-2536] + CS(=O)(=O)N1CCN(Cc2cc3nc(-c4cccc5[nH]ncc45)nc(N4CCOCC4)c3s2)CC1 [Pictilisib] (partner 1 µM)
In short: as §1

[4] = compound: CC[C@@H]1C(=O)N(C)c2cnc(Nc3ccc(C(=O)NC4CCN(C)CC4)cc3OC)nc2N1C1CCCC1 [BI-2536] + NC(=O)Nc1cc(-c2cccc(F)c2)sc1C(=O)N[C@H]1CCCNC1 [AZD7762] (partner 0.2 µM)
In short: as §1

Cell Line	relative viability ([1]; first compound 0.01 µM)	relative viability ([1]; first compound 0.03162 µM)	relative viability ([1]; first compound 0.1 µM)	relative viability ([1]; first compound 0.3162 µM)	relative viability ([1]; first compound 1 µM)	relative viability ([2]; first compound 0.01 µM)	relative viability ([2]; first compound 0.03162 µM)	relative viability ([2]; first compound 0.1 µM)	relative viability ([2]; first compound 0.3162 µM)	relative viability ([2]; first compound 1 µM)	relative viability ([3]; first compound 0.01 µM)	relative viability ([3]; first compound 0.03162 µM)	relative viability ([3]; first compound 0.1 µM)	relative viability ([3]; first compound 0.3162 µM)	relative viability ([3]; first compound 1 µM)	relative viability ([4]; first compound 0.01 µM)	relative viability ([4]; first compound 0.03162 µM)	relative viability ([4]; first compound 0.1 µM)	relative viability ([4]; first compound 0.3162 µM)	relative viability ([4]; first compound 1 µM)
NCI-H1975	0.23	0.196	0.183	0.243	0.294	0.769	0.841	0.716	0.811	0.75	0.27	0.284	0.24	0.117	0.135	0.726	0.568	0.639	0.236	0.177
CAL-12T	0.4	0.65	0.93	0.143	0.408	0.724	0.829	0.726	0.741	0.825	0.536	0.401	0.178	0.181	0.141	0.608	0.712	0.619	0.177	0.187
NCI-H1623	0.448	0.382	0.513	0.421	0.574	–	–	–	–	–	–	–	–	–	–	–	–	–	–	–
HCC-44	0.977	1.26	0.996	1.02	1.2	0.955	1	0.946	0.935	0.989	0.68	0.769	0.257	0.0696	0.0951	1.08	1.06	0.978	0.655	0.361
EKVX	0.735	0.863	0.912	0.888	0.95	0.755	0.898	0.735	–	1.02	0.47	0.483	0.444	0.14	0.123	0.613	0.877	0.63	0.614	0.276
NCI-H1651	0.925	0.995	0.698	0.743	0.852	0.186	0.168	0.185	0.168	0.171	0.524	0.372	0.488	0.0623	0.055	0.476	0.543	0.392	0.261	0.0882
NCI-H1944	0.743	0.781	0.722	0.723	0.807	0.429	0.438	0.409	0.43	0.404	0.339	0.336	0.295	0.157	0.17	0.476	0.611	0.269	0.12	0.13
NCI-H1703	–	–	–	–	–	0.473	0.54	0.381	0.33	0.431	0.244	0.239	0.137	0.174	0.131	0.141	0.174	0.0928	0.0808	0.0722
Calu-6	–	–	–	–	–	0.561	0.625	0.65	0.62	0.559	0.894	0.396	0.107	0.0926	0.0965	–	–	–	–	–
EBC-1	–	–	–	–	–	0.697	0.734	0.712	0.7	0.812	0.35	0.232	0.147	0.158	0.119	–	–	–	–	–
SW 1573	0.333	0.218	0.278	0.383	0.21	0.437	0.625	0.495	0.488	0.473	0.477	0.479	0.263	0.142	0.118	–	–	–	–	–
A-427	0.827	1.06	0.94	0.905	1.02	0.644	0.772	0.74	0.653	0.869	0.776	0.707	0.606	0.0766	0.122	0.728	0.867	0.436	0.195	0.173
NCI-H2347	0.529	0.593	0.459	0.526	0.437	0.525	0.632	0.612	0.508	0.658	0.471	0.523	0.596	0.463	0.32	0.647	0.643	0.73	0.545	0.325
NCI-H1355	0.678	0.716	0.756	0.67	0.763	0.682	0.755	0.7	0.692	0.841	0.477	0.43	0.227	0.161	0.184	0.697	0.776	0.751	0.269	0.185
NCI-H358	0.21	0.431	0.521	–	0.839	0.58	0.665	0.598	–	0.686	0.338	0.235	0.18	0.14	0.15	0.64	0.408	0.266	0.153	0.177
PC-3 [JPC-3]	0.622	0.705	0.638	0.713	0.728	1.12	–	1.09	1.09	1.2	0.682	0.769	0.441	0.268	0.291	0.878	0.76	0.321	0.216	0.197
NCI-H2228	0.177	0.143	0.174	0.133	0.166	0.561	0.666	0.841	0.597	0.817	0.39	0.374	0.218	0.13	0.165	–	–	–	–	–
HOP-62	0.975	1.04	0.885	0.789	0.992	0.389	0.351	0.466	–	0.465	0.704	0.965	0.159	0.0849	0.127	0.505	0.653	0.235	0.15	0.101
HARA	0.854	0.831	0.668	0.439	0.895	0.888	0.756	0.76	–	0.872	0.372	0.535	0.147	0.072	0.0745	0.325	0.424	0.167	0.158	0.137
NCI-H838	0.288	0.344	0.299	0.273	0.274	0.712	0.846	0.768	0.738	0.805	0.44	0.393	0.203	0.118	0.122	0.905	0.803	0.831	0.634	0.634

Cell Line	relative viability ([1]; first compound 0.01 µM)	relative viability ([1]; first compound 0.03162 µM)	relative viability ([1]; first compound 0.1 µM)	relative viability ([1]; first compound 0.3162 µM)	relative viability ([1]; first compound 1 µM)	relative viability ([2]; first compound 0.01 µM)	relative viability ([2]; first compound 0.03162 µM)	relative viability ([2]; first compound 0.1 µM)	relative viability ([2]; first compound 0.3162 µM)	relative viability ([2]; first compound 1 µM)	relative viability ([3]; first compound 0.01 µM)	relative viability ([3]; first compound 0.03162 µM)	relative viability ([3]; first compound 0.1 µM)	relative viability ([3]; first compound 0.3162 µM)	relative viability ([3]; first compound 1 µM)	relative viability ([4]; first compound 0.01 µM)	relative viability ([4]; first compound 0.03162 µM)	relative viability ([4]; first compound 0.1 µM)	relative viability ([4]; first compound 0.3162 µM)	relative viability ([4]; first compound 1 µM)
NCI-H1755	0.579	0.563	0.264	0.371	0.503	0.858	0.915	0.888	0.827	0.893	0.424	0.399	0.157	0.151	0.175	0.452	0.467	0.305	0.253	0.265
HCC-78	–	–	–	–	–	0.86	0.872	0.476	0.869	0.85	0.26	0.25	0.166	0.13	0.0467	0.75	0.576	0.687	0.433	0.249
IA-LM	–	–	–	–	–	0.811	0.825	0.766	0.788	0.847	0.346	0.264	0.0753	0.0992	0.0622	–	–	–	–	–
COR-L23	0.655	0.789	0.746	0.711	0.761	0.321	0.38	0.34	0.335	0.396	0.636	0.593	0.101	0.0743	0.0991	–	–	–	–	–
NCI-H2023	0.766	1.03	0.871	0.594	0.888	0.469	0.57	0.561	0.425	0.491	0.218	0.211	0.091	0.0927	0.094	–	–	–	–	–
COR-L 105	0.782	0.642	0.934	0.508	0.704	0.586	0.795	0.46	0.683	0.794	0.437	0.358	0.23	0.237	0.216	–	–	–	–	–
NCI-H520	0.206	0.24	0.285	0.181	0.245	0.294	0.351	0.268	0.385	0.343	0.287	0.232	0.268	0.172	0.162	–	–	–	–	–
SK-LU-1	0.181	0.206	0.213	0.196	0.209	0.432	0.49	0.475	0.511	0.587	0.499	0.62	0.42	0.201	0.157	–	–	–	–	–
NCI-H522	1.05	1.1	1.42	1.14	1.27	0.586	0.661	0.703	–	0.607	–	–	–	–	–	0.826	0.879	0.944	0.302	0.365
NCI-H1299	–	–	–	–	–	0.946	1.01	0.953	0.95	0.947	0.708	0.351	0.154	0.0991	0.0448	–	–	–	–	–
NCI-H1650	0.185	0.198	0.207	0.194	0.194	0.661	0.751	0.721	0.82	0.784	0.567	0.366	0.146	0.162	0.0901	–	–	–	–	–
NCI-H2009	0.976	1.1	1.01	1.07	1.04	0.652	0.787	0.675	0.686	0.64	0.779	0.358	0.179	0.137	0.103	–	–	–	–	–
NCI-H1648	–	–	–	–	–	0.535	0.891	0.567	0.889	1.05	–	–	–	–	–	0.767	0.775	0.432	0.332	0.224
SK-MES-1	0.827	0.79	0.646	0.688	0.857	0.646	0.787	0.794	0.746	0.728	0.357	0.374	0.304	0.157	0.127	–	–	–	–	–
NCI-H2342	0.653	0.6	0.67	0.548	0.709	0.393	0.377	0.457	0.43	0.535	–	–	–	–	–	–	0.459	0.411	0.267	0.349
SW 900	0.183	0.19	0.171	0.169	0.169	0.805	0.908	0.739	0.743	0.982	–	–	–	–	–	0.557	0.689	0.568	0.188	0.137
HCC-366	–	–	–	–	–	0.328	0.374	0.469	0.39	0.366	0.144	0.179	0.0833	0.0304	0.0488	0.246	0.37	0.156	0.017	0.0177
A549	–	–	–	–	–	0.215	0.387	0.356	0.269	0.417	0.46	0.461	0.0515	0.0559	0.0422	–	–	–	–	–
NCI-H661	0.964	0.943	0.892	0.906	0.933	0.697	0.705	0.778	0.666	0.83	0.411	0.37	0.255	0.247	0.217	–	–	–	–	–
NCI-H1563	0.5	0.627	0.578	0.519	0.504	–	–	–	–	–	0.699	0.61	0.558	0.578	0.511	–	–	–	–	–
